Experimental data published in patent US11578069B2, “Compounds for inhibition of α4 β7 integrin” (Gilead Sciences, Inc., priority 2019, dated 2023).

Tests used:
[1] = molecular target: T1, α4β1 integrin (Homo sapiens, UniProt P05556+P13612); assay: α4β1 Cell Capture Assay; format: cell-based; conditions: capture of α4β1 expressing Jurkat cells on VCAM-1 extracellular domain-coated plate
T1 construct: monitoring the capture of α4β1 expressing cells; endogenous in cells; host or cells: Jurkat
Protocol: The potency of inhibitors in preventing α4β1 integrin interaction with VCAM-1 was measured by monitoring the capture of α4β1 expressing cells to a recombinant VCAM-1 extracellular domain-coated plate.
384-well plates (Corning 3702) were coated with VCAM-1 extracellular domain by dispensing 20 μL of VCAM-1 at 0.5 μg/ml per well and incubating overnight at 4° C. The plates were then washed with PBS and blocked with 3% BSA for 2 hours before being washed again.
(§1) Jurkat cells were spun down and re-suspended in assay medium (DMEM+0.5% FBS+0.5 mM MnCl2) at a density of 0.5×10^6 cells/ml. The cells were then dispensed (60 μL/well) to a 384-well plate (Greiner 781280) that was previously spotted with 60 nL of test compound per well. The plates were incubated at 37° C. for 1 hour. 50 μL of cells were transferred to the blocked, VCAM-1-coated plates and incubated for 30 minutes at 37° C. 10 μl of 12% glutaraldehyde containing Hoechst 33342 (0.06 mg/mL) was added to the cells (2% glutaraldehyde and 0.01 mg/ml Hoechst 33342 final concentrations). The plates were incubated for 90 minutes at room temperature. The plates were then washed 3 times with 70 μL of PBS per well and imaged on a Cellomics ArrayScan instrument. The cells that were bound to the plate were counted and plotted against the compound concentration to determine the EC50 of the test compounds.

[2] = molecular target: T2, α4β7 integrin (Homo sapiens, UniProt P13612+P26010); assay: α4β7 Integrin Cell Capture Assay; format: cell-based; conditions: capture of α4β7 integrin expressing RPM18866 cells on MadCAM-1 extracellular domain-coated plate
T2 construct: monitoring the capture of α4β7 integrin expressing cells; endogenous in cells; host or cells: RPMI8866
T2 sequence (P13612 34-1032): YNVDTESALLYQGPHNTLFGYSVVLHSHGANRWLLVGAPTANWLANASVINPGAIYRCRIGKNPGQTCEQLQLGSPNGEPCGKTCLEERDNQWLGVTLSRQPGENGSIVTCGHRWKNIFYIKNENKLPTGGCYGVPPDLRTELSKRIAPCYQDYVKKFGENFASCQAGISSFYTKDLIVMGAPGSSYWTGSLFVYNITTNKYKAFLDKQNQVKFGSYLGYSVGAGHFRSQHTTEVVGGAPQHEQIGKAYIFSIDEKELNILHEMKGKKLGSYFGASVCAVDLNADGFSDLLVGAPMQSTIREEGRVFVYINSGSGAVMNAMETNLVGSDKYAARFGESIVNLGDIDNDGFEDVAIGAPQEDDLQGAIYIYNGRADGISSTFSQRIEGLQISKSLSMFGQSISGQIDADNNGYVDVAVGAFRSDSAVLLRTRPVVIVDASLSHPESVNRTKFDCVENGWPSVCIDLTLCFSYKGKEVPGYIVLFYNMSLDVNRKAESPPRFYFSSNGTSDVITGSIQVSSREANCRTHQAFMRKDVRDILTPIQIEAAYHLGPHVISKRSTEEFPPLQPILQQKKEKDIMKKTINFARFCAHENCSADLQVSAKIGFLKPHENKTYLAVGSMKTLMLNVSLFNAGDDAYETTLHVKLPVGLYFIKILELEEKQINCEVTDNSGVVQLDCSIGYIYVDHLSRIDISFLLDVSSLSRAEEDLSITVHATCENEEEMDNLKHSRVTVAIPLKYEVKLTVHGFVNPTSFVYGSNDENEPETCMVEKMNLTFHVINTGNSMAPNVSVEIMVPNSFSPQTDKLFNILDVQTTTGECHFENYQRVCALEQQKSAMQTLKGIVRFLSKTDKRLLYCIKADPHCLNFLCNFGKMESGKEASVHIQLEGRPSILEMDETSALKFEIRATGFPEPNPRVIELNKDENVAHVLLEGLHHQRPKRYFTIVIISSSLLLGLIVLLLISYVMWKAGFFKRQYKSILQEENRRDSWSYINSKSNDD
T2 sequence (P26010 20-798): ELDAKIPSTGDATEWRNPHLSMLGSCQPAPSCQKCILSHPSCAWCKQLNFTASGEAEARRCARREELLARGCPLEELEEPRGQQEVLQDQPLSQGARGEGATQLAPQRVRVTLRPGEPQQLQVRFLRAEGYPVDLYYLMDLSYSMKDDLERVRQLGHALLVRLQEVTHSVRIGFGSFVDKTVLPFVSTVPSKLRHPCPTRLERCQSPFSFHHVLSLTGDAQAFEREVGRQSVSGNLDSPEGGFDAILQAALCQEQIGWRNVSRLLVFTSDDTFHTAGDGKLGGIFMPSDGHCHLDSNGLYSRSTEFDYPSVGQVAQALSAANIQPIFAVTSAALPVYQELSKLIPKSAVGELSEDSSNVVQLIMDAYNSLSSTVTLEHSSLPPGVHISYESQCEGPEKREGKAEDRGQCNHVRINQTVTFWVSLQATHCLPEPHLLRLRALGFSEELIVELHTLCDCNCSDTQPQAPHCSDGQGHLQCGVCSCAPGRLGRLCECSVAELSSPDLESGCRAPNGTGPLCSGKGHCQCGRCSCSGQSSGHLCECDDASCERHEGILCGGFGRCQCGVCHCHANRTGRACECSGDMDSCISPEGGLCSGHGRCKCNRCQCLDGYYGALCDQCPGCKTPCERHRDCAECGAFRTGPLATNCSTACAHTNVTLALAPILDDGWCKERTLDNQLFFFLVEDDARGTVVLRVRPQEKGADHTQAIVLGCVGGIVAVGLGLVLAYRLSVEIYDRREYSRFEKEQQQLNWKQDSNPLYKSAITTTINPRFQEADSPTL
Protocol: The potency of inhibitors in preventing α4β7 integrin interaction with MadCAM-1 was measured by monitoring the capture of α4β7 integrin expressing cells on a recombinant MadCAM-1 extracellular domain-coated plate.
384-well plates (Corning 3702) were coated with MadCAM-1 extracellular domain by dispensing 20 μL of MAdCAM-1 at 1.0 μg/mL per well and incubating overnight at 4° C. The plates were then washed with PBS and blocked with 3% BSA for 2 hours before being washed again.
as §1, with “RPM18866” for “Jurkat”, “cells/mL.” for “cells/ml.”, “MadCAM-1-coated” for “VCAM-1-coated”, “μL” for “μl”, “mg/mL” for “mg/ml Hoechst 33342”

T1 sequence (P05556 21-798, one chain of several): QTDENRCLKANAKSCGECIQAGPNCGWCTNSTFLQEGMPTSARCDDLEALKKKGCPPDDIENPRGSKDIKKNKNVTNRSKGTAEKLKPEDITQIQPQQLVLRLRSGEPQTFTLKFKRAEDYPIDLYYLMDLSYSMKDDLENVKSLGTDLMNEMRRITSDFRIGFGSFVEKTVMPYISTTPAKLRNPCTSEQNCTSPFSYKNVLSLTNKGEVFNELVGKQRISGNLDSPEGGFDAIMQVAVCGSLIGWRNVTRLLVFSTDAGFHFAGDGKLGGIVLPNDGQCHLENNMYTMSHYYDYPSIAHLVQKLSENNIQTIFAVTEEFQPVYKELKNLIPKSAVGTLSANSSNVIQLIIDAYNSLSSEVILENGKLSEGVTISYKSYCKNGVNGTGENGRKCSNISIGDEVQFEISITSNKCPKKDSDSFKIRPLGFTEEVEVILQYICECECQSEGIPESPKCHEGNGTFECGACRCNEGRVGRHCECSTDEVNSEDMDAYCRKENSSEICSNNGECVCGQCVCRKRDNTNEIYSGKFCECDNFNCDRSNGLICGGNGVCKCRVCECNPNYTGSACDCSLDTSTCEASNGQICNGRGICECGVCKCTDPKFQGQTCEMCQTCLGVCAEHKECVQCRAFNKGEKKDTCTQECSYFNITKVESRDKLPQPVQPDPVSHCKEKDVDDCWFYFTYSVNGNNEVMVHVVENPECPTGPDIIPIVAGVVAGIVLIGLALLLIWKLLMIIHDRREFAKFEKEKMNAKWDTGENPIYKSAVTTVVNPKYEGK

SMILES | EC50 ([1]; Table 2) | EC50 ([2]; Table 2) | EC50 ([1]; Table 1) | EC50 ([2]; Table 1)
Cc1c(-c2ccc(C[C@H](NC(=O)c3c(F)cc(N4CCOC[C@@H]4C(F)(F)F)cc3F)C(=O)O)cc2)c(=O)n(C)c(=O)n1C [Example 37] | 9.8 nM | 0.4 nM |  | 
Cc1nc(-c2ccc(C[C@H](NC(=O)c3c(F)cc(N4CCOC[C@@H]4C(F)(F)F)cc3F)C(=O)O)cc2)c(=O)n(C)c1C [Example 38] | 86.1 nM | 4.9 nM |  | 
Cc1cc(C[C@H](NC(=O)c2c(F)cc(N3CCOC[C@@H]3C(F)(F)F)cc2F)C(=O)O)ccc1-c1c(C)n(C)c(=O)n(C)c1=O [Example 39] | 12.8 nM | 0.4 nM |  | 
Cc1cc(C[C@H](NC(=O)c2c(C)cc(N3CCOC[C@@H]3C(F)(F)F)cc2F)C(=O)O)ccc1-c1c(C)nc(C)n(C)c1=O [Example 40] | 7.7 nM | 0.3 nM |  | 
Cc1cc(C[C@H](NC(=O)c2c(C)cc(N3CCOC[C@@H]3C(F)(F)F)cc2F)C(=O)O)ccc1-c1nc(C)c(C)n(C)c1=O [Example 42] | 5.8 nM | 0.3 nM |  | 
CC[C@@H](Nc1cc(F)c(C(=O)N[C@@H](Cc2ccc(-n3c(=O)cc(C)n(C)c3=O)nc2)C(=O)O)c(F)c1)C(F)(F)F [Example 43] | 661 nM | 15.9 nM |  | 
CC[C@@H](Nc1cc(F)c(C(=O)N[C@@H](Cc2ccc(-c3c(C)c4cc(F)ccc4n(C)c3=O)nc2)C(=O)O)c(F)c1)C(F)(F)F [Example 44] | 37.6 nM | 2.9 nM |  | 
COc1cc(C[C@H](NC(=O)c2c(F)cc(N3CCOC[C@@H]3C(F)(F)F)cc2F)C(=O)O)ccc1-n1c(=O)c2ccncc2n(C)c1=O [Example 53] | 18.6 nM | 0.2 nM |  | 
Cn1c(=O)n(-c2ccc(C[C@H](NC(=O)c3c(F)cc(N4CCOC[C@@H]4C(F)(F)F)cc3Cl)C(=O)O)cn2)c(=O)c2ccncc21 [Example 55, (S)-2-(2-chloro-6-fluoro-4-((R)-3-(trifluoromethyl)morpholino)benzamido)-3-(6-(1-methyl-2,4-dioxo-1,4-dihydropyrido[3,4-d]pyrimidin-3(2H)-yl)pyridin-3-yl)propanoic acid] |  |  | 3.4 nM | 0.1 nM

Second part, the compound after the results:

EC50 ([1]; Table 2) | EC50 ([2]; Table 2) | EC50 ([1]; Table 1) | EC50 ([2]; Table 1) | SMILES
 |  | 2.8 nM | 0.2 nM | Cc1cc(N2CCOC[C@@H]2CC(F)F)cc(F)c1C(=O)N[C@@H](Cc1ccc(-n2c(=O)c3c(n(C)c2=O)CCOC3)cc1)C(=O)O [Example 57, (S)-2-(4-((S)-3-(2,2-difluoroethyl)morpholino)-2-fluoro-6-methylbenzamido)-3-(4-(1-methyl-2,4-dioxo-1,5,7,8-tetrahydro-2H-pyrano[4,3-d]pyrimidin-3(4H)-yl)phenyl)propanoic acid]
 |  | 2.9 nM | 0.1 nM | Cc1cc(N2CCOC[C@@H]2C(F)(F)F)cc(F)c1C(=O)N[C@@H](Cc1ccc(-n2c(=O)c3c(n(C)c2=O)CCOC3)cc1)C(=O)O [Example 59, (S)-2-(2-fluoro-6-methyl-4-((R)-3-(trifluoromethyl)morpholino)benzamido)-3-(4-(1-methyl-2,4-dioxo-1,5,7,8-tetrahydro-2H-pyrano[4,3-d]pyrimidin-3(4H)-yl)phenyl)propanoic acid]
 |  | 11.5 nM | 0.4 nM | Cn1c2c(c(=O)n(-c3ccc(C[C@H](NC(=O)c4c(F)cc(N5CCOC[C@@H]5C(F)(F)F)cc4F)C(=O)O)cc3)c1=O)CCOC2 [Example 61, (S)-2-(2,6-difluoro-4-((R)-3-(trifluoromethyl)morpholino)benzamido)-3-(4-(1-methyl-2,4-dioxo-1,2,4,5,6,8-hexahydro-3H-pyrano[3,4-d]pyrimidin-3-yl)phenyl)propanoic acid]
 |  | 3.7 nM | 0.1 nM | Cc1cc(N2CCOC[C@@H]2C(F)(F)F)cc(F)c1C(=O)N[C@@H](Cc1ccc(-n2c(=O)c3c(n(C)c2=O)COCC3)cc1)C(=O)O [Example 63, (S)-2-(2-fluoro-6-methyl-4-((R)-3-(trifluoromethyl)morpholino)benzamido)-3-(4-(1-methyl-2,4-dioxo-1,2,4,5,6,8-hexahydro-3H-pyrano[3,4-d]pyrimidin-3-yl)phenyl)propanoic acid]
 |  | 1.8 nM | 0.1 nM | Cc1cc(N2CCOC[C@@H]2C(F)(F)F)cc(F)c1C(=O)N[C@@H](Cc1ccc(-n2c(=O)c3c(n(C)c2=O)CCC3)cc1)C(=O)O [Example 64, (S)-2-(2-fluoro-6-methyl-4-((R)-3-(trifluoromethyl)morpholino)benzamido)-3-(4-(1-methyl-2,4-dioxo-1,2,4,5,6,7-hexahydro-3H-cyclopenta[d]pyrimidin-3-yl)phenyl)propanoic acid]
 |  | 4.8 nM | 0.1 nM | Cc1cc(N2CCOC[C@@H]2C(F)(F)F)cc(F)c1C(=O)N[C@@H](Cc1ccc(-n2c(=O)c3c(n(C)c2=O)COC3)cc1)C(=O)O [Example 66, (S)-2-(2-fluoro-6-methyl-4-((R)-3-(trifluoromethyl)morpholino)benzamido)-3-(4-(1-methyl-2,4-dioxo-1,2,5,7-tetrahydrofuro[3,4-d]pyrimidin-3(4H)-yl)phenyl)propanoic acid]
